Measurements from patent EP3045469A1, “POLYMYXIN DERIVATIVE AND USES THEREOF” (priority 2015, dated 2016).
Values joined by “and” are separate entries in the source; they are usually repeats but may differ in a detail not shown here. Equal entries are not always repeated. “Also recorded” adds a separate entry of the source. Where two headings read alike, the source gives them in different places. Where a SMILES comes first, the peptide text is derived from it. Bridges are numbered along the chain shown (N, C = ends). [ ]: non-standard residue; d: D form. The star is where a group is joined. Octanoyl = CCCCCCCC(=O)*; Dab = NCC[C@H](N)C(=O)O; Abu = CC[C@H](N)C(=O)O

Assays:
A. baumannii ATCC 19606 = system: A. baumannii ATCC 19606
Protocol: (§1) Synergy studies were performed by using polymyxin derivatives in combination with rifampin, a model compound for such antibacterial agents that the intact outer membrane of Gram-negative bacteria acts as a permeability barrier.

A. baumannii JMI 48125 = system: A. baumannii JMI 48125
Protocol: as §1

E. coli ATCC 25922 = system: E. coli ATCC 25922
Protocol: as §1

E. coli JMI 3328 = system: E. coli JMI 3328
Protocol: as §1

K. pneumoniae ATCC 43816 = system: K. pneumoniae ATCC 43816
Protocol: as §1

K. pneumoniae JMI 27072 = system: K. pneumoniae JMI 27072
Protocol: as §1

P. aeruginosa ATCC 27853 = system: P. aeruginosa ATCC 27853
Protocol: as §1

P. aeruginosa JMI 7445 = system: P. aeruginosa JMI 7445
Protocol: as §1

E. coli JMI 109 = test: MIC assay (CLSI broth microdilution; checkerboard with rifampin); assay type: cell-based, Escherichia coli; settings: polymyxin-nonsusceptible strain
Protocol: as §1

K. pneumoniae JMI 27068 = test: as above; assay type: cell-based, Klebsiella pneumoniae; settings: polymyxin-nonsusceptible strain
Protocol: as §1

A. baumannii CMI 417 = test: as above; assay type: cell-based, Acinetobacter baumannii; settings: polymyxin-nonsusceptible strain
Protocol: as §1

[1] = 7-day intravenous toxicity (nephrotoxicity) study in cynomolgus monkeys; settings: for kidney injury markers (S-BUN, S-Crea, U-NAG/Crea, U-GGT/Crea) / animals euthanized due to severe nephrotoxic effects: IV infusion TID, seven days; for animals euthanized due to severe nephrotoxic effects: 3 animals per group
Protocol: In vivo toxicity and toxicokinetic studies were performed by using cynomolgus monkeys. The laboratory that performed the animal studies is accredited by the Association for Assessment and Accreditation of Laboratory Animal Care (AAALAC), has an Animal Welfare Assurance issued by the Office of Laboratory Animal Welfare (OLAW), is registered with the United States Department of Agriculture (USDA), and has an Institutional Animal Care and Use Committee (IACUC) responsible for compliance with applicable laws and regulations concerning the humane care and use of laboratory animals.
Naive female cynomolgus monkeys were acclimatized to study room for 28 days during which each animal was implanted with a permanent indwelling femoral catheter to permit continuous intravenous infusions. The animals were allowed surgical recovery period of at least 2 weeks before initiating dosing.
Polymyxin B sulfate was from Sigma-Aldrich (catalogue number P0972, lot number BCBF8382V). On each day of use, appropriate quantities of NAB739, NAB815 or polymyxin B were weighed and dissolved in appropriate volumes of sterile saline to prepare a stock solution for each test article and positive control. A correction factor was used in the stock solution preparation to account for both the purity and sulfate content in each test article. Accordingly, the dose (such as 36 mg/kg/d) refers to the dose of the pure peptide as its free base form, not as its sulfate salt.
The doses were the following: polymyxin B 18 mg/kg/d (Group 1), polymyxin B 24 mg/kg/d (Group 2), NAB739 24 mg/kg/d (Group 3), NAB739 36 mg/kg/d (Group 4), NAB815 24 mg/kg/d (Group 5), NAB815 36 mg/kg/d (Group 6). Three animals were included in each study groups.
(§2) For seven days, the animals were dosed by intravenous (IV) infusion three times daily (TID) at a dose volume of 10 mL/kg for 1 hour (± 10 minutes), 8 ± 0.5 hours apart. The day of initial dose administration was designated study Day 1, with subsequent days consecutively numbered. Days prior to the initial dose administration were consecutively numbered with the final day of acclimation referenced as Day -1.
(§3) The following parameters were evaluated at designed intervals: clinical observations, body weights, clinical pathology (hematology, coagulation, serum chemistry, urinalysis including urine sediments and urine chemistry), toxi-cokinetics (plasma and urine) and anatomic pathology (kidney). In cases of animals sacrificed on an unscheduled basis, samples were taken on the day of the sacrifice.
On the day of necropsy, animals were sedated with ketamine, weighed, and anesthetized with an intravenous injection of a commercial pentobarbital and phenytoin solution, followed by exsanguinations.
At necropsy, gross observations and organ weights were recorded, and specific tissues were collected. Histopathology was conducted on sections of kidney stained with hematoxylin and eosin (H&E).
The figures also show Urine N-acetyl-β-D-glucosaminidase/urine creatinine ratio (U-NAG/Crea; Fig. 3) and Urine Gamma Glutamyltransferase/urine creatinine ratio (U-GGT/Crea; Fig. 4), both urine biomarkers for kidney injury, in those animals. S-Crea and U-Crea were measured by using an Olympus Analyzer (OA) and the modified Jaffe method, S-BUN by using OA and urease/L-glutamate dehydrogenase. U-NAG was measured by using OA/enzymatic, and U-GGT by using OA and glutamyl-carboxy-p-nitroanilide IFCC.
The presence of the following nephropathological parameters was recorded in each animal: tubular basophilia (regeneration), tubular degeneration/necrosis, infiltration (by mononuclear and/or mixed inflammatory cells), tubular dilatation, and tubular casts.

[2] = Toxicokinetics (plasma and urine levels by LC-MS/MS) in cynomolgus monkeys; settings: for urinary recoveries (0-8 h urine collection) / urine concentrations (in 0-8 h urine collection): 36 mg/kg/d; for concentration in the urine: after infusion at 8 mg/kg, highest found either in the 0-4 h or 4-8 h sample, given for each animal; for concentration in the urine / 0-8 h recovery in urine: 8 mg/kg; for 0-8 h recovery in urine: after the infusion of 8 mg/kg, percentages given for each animal
Protocol: as §2, §3
Plasma and urine concentrations for toxicokinetic (TK) studies were determined by using liquid chromatograph interfaced with a mass spectrometer after precipitation of proteins. A sample (100 µL) was mixed with internal standard solution in water:formic acid (99:1 v/v; […]). Then, 600µL of 100:1 acetonitrile:formic acid was added. The plates were centrifuged at 3200 rpm for 5 minutes. Using a Tomtec Quadra96, a 450 µL aliquot was transferred to a new 96-well plate and dried under nitrogen at 40°C. Then, 200 µL of water:methanol:formic acid (85:15:1 1 v/v) was added and the plate sealed for LC-MS/MS injection. LC-MS system consisted of Waters Acquity liquid chromatograph interfaced with a Thermo Scientific TSQ Quantitative triple quadrupole MS with ionization in the positive ion mode. Each sample (20 µL) was injected onto a Waters Acquity BEH Shield RP18 column (2.1 x 50 mm; 1.7 µm) equilibrated at 50°C. Mobile Phase A was 85:15:1 v/v water:methanol:formic acid. Mobile Phase B was 50:50:1 v/v acetonitrile:methanol:formic acid.
Peak area ratios from the calibration standard responses were regressed using a (1/concentration^2) linear fit for polymyxin B using colistin as the internal standard. For NAB739 and NAB815, peak areas from the calibration standard responses were regressed using a (1/concentration^2) quadratic fit (without the use of an internal standard).
Toxicokinetic analysis was performed by using WinNonlin Phoenix version 6.3 software (Pharsight, Cary, NC). For plasma TK, noncompartmental IV infusion model was used.
The data is from the cynomolgus monkey studies described in the Example 3, where the peptides were administered as a 1-hour intravenous infusion thrice a day. The plasma and urine levels of the peptides were determined as in Example 3.

[3] = alone, Müller-Hinton II broth, 35°C, 20 hours
[4] = in combination with rifampin (0.25 µg/mL), duplicate checkerboard assays

SMILES	MIC (A. baumannii ATCC 19606; [3]) [µg/mL]	MIC (A. baumannii ATCC 19606; [4]) [µg/mL]	MIC (A. baumannii JMI 48125; [3]) [µg/mL]	MIC (A. baumannii JMI 48125; [4]) [µg/mL]	MIC (E. coli ATCC 25922; [3]) [µg/mL]	MIC (E. coli JMI 3328; [3]) [µg/mL]	MIC (K. pneumoniae ATCC 43816; [3]) [µg/mL]	MIC (K. pneumoniae JMI 27072; [3]) [µg/mL]	MIC (K. pneumoniae JMI 27072; [4]) [µg/mL]	MIC (P. aeruginosa ATCC 27853; [4]) [µg/mL]	MIC (P. aeruginosa JMI 7445; [3]) [µg/mL]	MIC (P. aeruginosa JMI 7445; [4]) [µg/mL]	MIC (E. coli JMI 109; [3]) [µg/mL]	MIC (E. coli JMI 109; [4]) [µg/mL]	MIC (K. pneumoniae JMI 27068; [3]) [µg/mL]	MIC (K. pneumoniae JMI 27068; [4]) [µg/mL]	MIC (A. baumannii CMI 417; [3]) [µg/mL]	MIC (A. baumannii CMI 417; [4]) [µg/mL]	kidney injury markers (S-BUN, S-Crea, U-NAG/Crea, U-GGT/Crea) ([1]; 24 mg/kg/d)	animals euthanized due to severe nephrotoxic effects ([1]; 36 mg/kg/d)	other results
CCCCCCCC(=O)N[C@@H](CCN)C(=O)N[C@H](C(=O)N[C@@H](C(=O)N[C@H]1CCNC(=O)[C@H]([C@@H](C)O)NC(=O)[C@H](CCN)NC(=O)[C@H](CC)NC(=O)[C@H](CC(C)C)NC(=O)[C@@H](Cc2ccccc2)NC(=O)[C@H](CCN)NC1=O)[C@H](C)O)[C@@H](C)O [NAB815, octanoyl - αDab -Thr - DThr-[cyclo-α,yDab - αDab - DPhe- Leu -Abu -αDab - Thr]] (Octanoyl-[Dab]T[dT][Dab][Dab][dF]L[Abu][Dab]T; lactam 4-C)	4	0.5 to 2	2	0.5 to 2	2	4	2 to 4	2 to 4	1 to 2	>8	8	4	128	1	128	4	256	2	None of the parameters was elevated	underwent no prescheduled necropsy	MIC (E. coli ATCC 25922; [4]): 1 µg/mL; MIC (E. coli JMI 3328; [4]): 1 µg/mL; MIC (K. pneumoniae ATCC 43816; [4]): 1 µg/mL; MIC (P. aeruginosa ATCC 27853; [3]): 16 µg/mL; kidney injury markers (S-BUN, S-Crea, U-NAG/Crea, U-GGT/Crea) ([1]; 36 mg/kg/d): only minor if any elevations in the four parameters; kidney histopathology findings (nephropathological parameters) ([1]; 36 mg/kg/d, H&E kidney sections, five parameters graded 0 no significant findings, 1 minimal, 2 mild, 3 moderate, 4 marked): moderate findings, both in one parameter only; also recorded: no other than minimal or mild findings; urinary recoveries (0-8 h urine collection) ([2]; day 1, per animal): 14.3% and 20.9% and 36.3%; urine concentrations (in 0-8 h urine collection) ([2]; day 1, per animal): 173 µg/mL and 265 µg/mL and 114 µg/mL; urinary recoveries (0-8 h urine collection) ([2]; day 7, per animal): 40.5% and 41.9%; urine concentrations (in 0-8 h urine collection) ([2]; day 7, per animal): 17 µg/mL and 62 µg/mL and 149 µg/mL; concentration in the urine [2]: 175 µg/mL and 225 µg/mL and 260 µg/mL; 0-8 h recovery in urine [2]: up to 38 % of the dose and ≤ 55 % of the dose and ≤ 88 % of the dose
CCCCCCCC(=O)N[C@H](C(=O)N[C@H](CO)C(=O)N[C@H]1CCNC(=O)[C@H]([C@@H](C)O)NC(=O)[C@H](CCN)NC(=O)[C@H](CCN)NC(=O)[C@H](CC(C)C)NC(=O)[C@@H](Cc2ccccc2)NC(=O)[C@H](CCN)NC1=O)[C@@H](C)O [NAB739, octanoyl -Thr - DSer-[cyclo-α,γDab - αDab - DPhe- Leu - αDab -αDab - Thr]] (Octanoyl-T[dS][Dab][Dab][dF]L[Dab][Dab]T; lactam 3-C)	4	0.5	2 to 4	0.5	2	2	4	2 to 4	1	4 to 8	4	4	32	1	128	2	128	2	one animal receiving NAB739 displayed marked increase in S-Crea	One animal	MIC (E. coli ATCC 25922): 1 µg/mL; MIC (E. coli JMI 3328): 1 µg/mL; MIC (K. pneumoniae ATCC 43816): 1 to 2 µg/mL; urinary recoveries (0-8 h urine collection) ([2]; day 1, per animal): 20.4% and 26.4%; urine concentrations (in 0-8 h urine collection) ([2]; day 1, per animal): 92 µg/mL and 33 µg/mL and 82 µg/mL; urinary recoveries (0-8 h urine collection) ([2]; day 7, per animal): 30.6% and 55.8%; urine concentrations (in 0-8 h urine collection) ([2]; day 7, per animal): 268 µg/mL and 348 µg/mL; concentration in the urine [2]: 80 µg/mL and 140 µg/mL and 155 µg/mL; 0-8 h recovery in urine [2]: up to 20 % of the dose and ≤ 91 % of the dose and ≤ 92 % of the dose
